In patent US20260248949A1, “COMPOSITION AND METHOD” (Optimus Salvus Limited, priority 2022, published 2026):

Settings: fasted subjects, 100 mg CBD equivalent by mouth, 1 hour post ingestion
Description: Fasted subjects were administered either a single cannabidiol capsule (100 mg cannabidiol) or two cannabidiol/cyclodextrin capsules (total 100 mg cannabidiol equivalent) by mouth. The capsules were taken with a standard glass of water. Capillary blood was drawn one hour after ingestion and the quantity of cannabidiol and cannabidiol metabolites in blood analysed by a certified laboratory.

Structure (SMILES): C=C(C)[C@@H]1CCC(C)=C[C@H]1c1c(O)cc(CCCCC)cc1O [Plain CBD, cannabidiol]
- Concentration of CBD in capillary blood: 11.52 ng/mL
- Concentration of CBD-COOH in capillary blood: 13.14 ng/mL
- Concentration of CBD-OH in capillary blood: 1.85 ng/mL
- Concentration, Total (CBD and metabolites) in capillary blood: 26.77 ng/mL
